Source: article PMC11327196, “A phase 1 study to assess the absolute bioavailability, mass balance, pharmacokinetics, metabolism, and excretion of [^14C]-mobocertinib, an oral inhibitor of EGFR exon 20 insertion mutations, in healthy participants” (Investigational New Drugs, 2024)

Experiments:
[1] = Period 2 human ADME study: whole blood PK after oral solution [14C]-mobocertinib; assay type: in vivo
Description: (§1) This was a two-period, open-label, single-dose phase 1 study (NCT03811834) conducted at one clinical site (Celerion, Lincoln, Nebraska, USA) in healthy male participants. The primary objective of Period 1 was to determine the absolute bioavailability of mobocertinib following a single oral dose of 160 mg mobocertinib as capsules and a single intravenous (IV) microdose of 50 µg (~ 2 µCi) [^14C]-mobocertinib. The primary objectives of Period 2 were to (1) assess the cumulative excretion of total radioactivity in urine and feces (mass balance); (2) assess the metabolite profile of mobocertinib in plasma, urine, and feces; and (3) characterize the PK of mobocertinib, AP32960, and AP32914 in plasma, whole blood, and urine, and total radioactivity concentration equivalents in plasma and whole blood following a single oral dose of 160 mg (~ 100 µCi) [^14C]-mobocertinib as an oral solution. A sample size of 6 healthy males was selected without statistical considerations and deemed adequate to meet the study objectives. Furthermore, the sample size was limited based on clinical considerations for human ADME studies and to limit exposure to radioactivity.
(§2) After a washout of 8–9 days, participants returned to the clinic for Day − 1 of Period 2. On Day 1 of Period 2, after a fast of ≥ 10 h, participants received a single nominal dose of 160 mg (~ 100 µCi; whole body effective dose of 5.3 mrem for a 70-kg human) [^14C]-mobocertinib as a 70 mL oral solution. The actual doses administered ranged from 161 to 163 mg (92.4 to 93.9 µCi). Participants stayed in the clinic from Day − 1 until a discharge criterion (≥ 80% of the total administered radioactive dose was recovered in urine and feces or excretion of radioactivity in urine and feces combined had declined to ≤ 1% of the total administered dose per day for ≥ 2 consecutive intervals) was met, or up to 10 days postdose. To measure the total radioactivity and concentrations of mobocertinib, AP32960, and AP32914 in whole blood and plasma, 4 blood samples were collected predose, and at 0.5, 1, 2, 3, 4, 5, 6, 8, 12, 24, 36, 48, 72, 96, 120, 144, 168, 192, 216, and 240 h postdose; a fifth blood sample was collected for plasma metabolite profiling at predose and 1, 2, 4, 6, 12, 24, 48, 72, 96, 120, and 168 h postdose. Feces and urine were collected predose (feces within 48 h and urine within 24 h prior to dosing), 0–24 h (urine from 0–12 and 12–24 h), and then at 24-hour intervals up to 240 h postdose or until a discharge criterion was met. […] These 2 participants continued with at-home fecal sample collections. One participant provided fecal samples until Day 13 (264–288 h interval) and one participant provided fecal samples until Day 19 (408–432 h interval), after which they met a discharge criterion.
(§3) Plasma, whole blood, and urine samples were assayed for mobocertinib, AP32960, and AP32914 concentrations using liquid chromatography-tandem mass spectrometry (Q2 Solutions, Ithaca, New York, USA). The analytical range for each analyte was 0.250 to 500 ng/mL in whole blood and plasma, and 1.00 to 1000 ng/mL in urine. […] Urine and fecal samples were assayed for total radioactivity following the IV dose of [^14C]-mobocertinib in Period 1, and whole blood, plasma, urine, and fecal samples were assayed for total radioactivity following the oral dose of [^14C]-mobocertinib in Period 2 using liquid scintillation counting (LSC; Celerion, Lincoln, Nebraska, USA; LLOQs: Period 1 urine: 0.115–0.118 ng eq/g, feces: 0.720–0.759 ng eq/g; Period 2 whole blood: 87.3–112 ng eq/g, plasma: 116–132 ng eq/mL, urine: 37.8–46.8 ng eq/g, feces: 110–336 ng eq/g across participants). Urine and fecal samples collected in Period 1 that had total radioactivity concentration equivalents below the LLOQ of the Celerion LSC assay were sent to Pharmaron for measurement by AMS (LLOQ: urine: 0.0000253–0.00111 ng eq/g; feces: 0.000404–0.0278 ng eq/g across participants). The LSC and AMS assays were not cross-validated. […]

[2] = Period 2 human ADME study: plasma PK after oral solution [14C]-mobocertinib; assay type: in vivo
Description: as §1, §2, §3

[3] = test system: EGFRex20ins mutation positive locally advanced or metastatic NSCLC; parameters: method as in doi:10.1016/j.annonc.2023.10.586; settings: mobocertinib versus chemotherapy, first-line; cited from earlier work
[4] = parameters: method as in PMID 34145979; settings: healthy participants, cited from earlier work
[5] = Period 2, oral solution 160 mg [14C]-mobocertinib, whole blood, geometric mean (geometric CV%)
[6] = Period 2, oral solution 160 mg [14C]-mobocertinib, blood-to-plasma, geometric mean (geometric CV%)
[7] = male, human, Period 2, oral solution 160 mg [14C]-mobocertinib, whole blood, geometric mean (geometric CV%)
[8] = Period 2, oral solution 160 mg [14C]-mobocertinib, geometric mean (geometric CV%)
[9] = male, human, Period 2, oral solution 160 mg [14C]-mobocertinib, geometric mean (geometric CV%)

With C=CC(=O)Nc1cc(Nc2ncc(C(=O)OC(C)C)c(-c3cn(C)c4ccccc34)n2)c(OC)cc1N(C)CCN(C)C [Mobocertinib] the “geometric mean AUC∞ lower in whole blood compared to plasma” value ([1]; Period 2, oral solution 160 mg [14C]-mobocertinib) was 24%, the CL/F [1, 5] was 222 (32.6) L/h and the “Molar AUC∞ ratio (analyte vs. total radioactivity)” value [1, 5] was 0.00224 (28.3). For the same molecule, the t1/2z [1, 5] was 20.5 (25.4) h, the “B:P Ratio AUC∞” value [1, 6] was 0.763 (17.7) and the “B:P Ratio Cmax” value [1, 6] was 0.794 (17.1). The tmax ([1]; Period 2, single oral solution 160 mg (~100 µCi) [14C]-mobocertinib, whole blood, median (range)) was 5.0 (2.0–6.0) h, the blood plasma ratio ([1]; male, human, whole blood and plasma, Period 2, oral solution 160 mg [14C]-mobocertinib, range over time, read-out: arithmetic mean blood-to-plasma (B:P) concentration ratios) was 0.6 to 1.04 and the AUC(0-inf) [1, 7] was 729 ng·h/mL. It also gave an AUC(0-t) [1, 7] of 718 ng·h/mL, a Cmax [1, 7] of 40.5 ng/mL and a Vd/F ([1]; male, human, Period 2, oral solution 160 mg [14C]-mobocertinib, whole blood, geometric mean (geometric CV%), read-out: Vz/F) of 6550 L. For the same molecule, the “t1/2z of total radioactivity” value ([2]; Period 2, oral solution 160 mg [14C]-mobocertinib, exceeds duration of sampling, approximate estimate, geometric mean (geometric CV%)) was roughly 281 h, the CL/F [2, 8] was 169 (38.4) L/h and the “Molar AUC∞ ratio (analyte vs. total radioactivity)” value [2, 8] was 0.00172 (31.1). For the same molecule, the tmax ([2]; Period 2, single oral solution 160 mg (~100 µCi) [14C]-mobocertinib, median (range)) was 6.0 (3.0–6.0) h, the AUC(0-inf) [2, 9] was 956 ng·h/mL and the AUC(0-t) [2, 9] was 945 ng·h/mL. For the same molecule, the Cmax [2, 9] was 51 ng/mL, the Vd/F ([2]; male, human, Period 2, oral solution 160 mg [14C]-mobocertinib, geometric mean (geometric CV%), read-out: Vz/F) was 5560 L and the half-life ([2]; male, human, Period 2, oral solution 160 mg [14C]-mobocertinib, geometric mean (geometric CV%), read-out: t1/2z (converted)) was 22.8 h. For the same molecule, the “primary endpoint of phase 3 study” value [3] was “not met”, the “decrease of combined molar AUC of mobocertinib and its active metabolites” value ([4]; coadministration of strong CYP3A inducer rifampin) was 95% and the “increase of combined molar AUC of mobocertinib and its active metabolites” value ([4]; coadministration of strong CYP3A inhibitor itraconazole) was 527%.
